pIC50: −log10 of the molar value.
Tests used:
[1] = test system: P. falciparum W2 strain (chloroquine-resistant); parameters: method as in PMID 29642881, PMID 33689276; details: cited from earlier work
[2] = In vitro metabolic stability in rat liver microsomes; assay type: in vitro ADME
Experimental: After removal, a pool consisting of livers from five naïve male rats and five C57BL male mice was immediately placed in a 50 mM Tris-HCl buffer, pH 7.4, containing 150 mM KCl. The livers were diced with scissors and washed three times with buffer, followed by homogenization with 20 mL of buffer in a Potter-type homogenizer (three cycles, with each cycle comprising three grindings of 1 min each at 1000 rpm). The homogenate was centrifuged at 10,000× g for 15 min at 4 °C. The resulting supernatant was then ultracentrifuged at 100,000× g for 60 min at 4 °C to obtain the microsomal pellet, which was resuspended in 50 mM HEPES-HCl buffer, pH 7.4, containing 20% glycerol and 1 mM EDTA.
The metabolic stability of volacein was assessed as described by Godoi et al. and Antunes et al.. Aliquots (4 µL) of 100 µM violacein working solution and 96 µL of the NADPH-regenerating system, containing 1.1 mM NADP^+, 10 mM glucose-6-phosphate, 1 U/mL glucose-6-phosphate dehydrogenase, 5 mM sodium citrate, and 66 mM magnesium chloride in 100 mM phosphate buffer, pH 7.4, were transferred to propylene tubes and pre-incubated for 5 min in an MTC 100 thermo shaker incubator (Miulab, Zhejiang, China) at 300 rpm and 37 °C. Subsequently, the metabolic reactions were initiated by adding 100 μL of microsomal proteins from HLMs, RLMs, and MLMs at a concentration of 2 mg/mL to the pre-incubated shaking tubes, resulting in final concentrations of 2 μM for violacein and 1 mg/mL for microsomal proteins. In this experiment, seven incubation times were planned for each species (0, 3, 5, 15, 30, 60, and 120 min), in triplicate. At each time interval, the reactions were stopped by adding 400 μL of ice-cold acetonitrile spiked with 10 µM omeprazole (IS) to each tube. Finally, the samples were vortexed for 5 min in a BenchMixer^TM XL (Benchmark, NJ, USA) and centrifuged at 12,000× g for 15 min at 4 °C (Hettich® Universal 320 R, Tuttlingen, Germany). The supernatants were transferred to a 96-well plate and 8 μL was injected into the LC-MS/MS system (see Section 2.3).
All incubations were performed simultaneously with positive and negative controls. The positive controls were prepared by incubating dapaconazole at the same conditions as violacein (final concentrations: 2 μM) and its metabolic stability was compared with previous studies. Similarly, the negative controls were prepared by incubating violacein in buffer solution, in the absence of microsome and cofactor solutions.
Violacein was analyzed using LC-MS/MS (LC-QQQ MS, LCMS8045, Shimadzu, Kyoto, Japan). Chromatographic separation was achieved on a Raptor^TM Biphenyl column (2.1 × 100 mm, 2.7 μm) at 40 °C. The mobile phases consisted of water (mobile phase A) and methanol (mobile phase B), both containing 2 mM ammonium formate and 0.1% (v/v) formic acid. A flow rate of 0.3 mL/min was used with an elution gradient starting at 20% mobile phase B and holding for 0.2 min, followed by a linear increase to 95% mobile phase B over 2 min that was then maintained for 1 min, with a return to the initial condition in 0.2 min. The total chromatographic run time was 5 min.
In vitro t1/2 was calculated using to the following equation [60, 61]:(1) t1/2=ln(2)/k where k is the slope of the log-linear regression graph of the percentage of drug remaining as a function of time.
CLint, in vitro was calculated using to the following equation [60, 61]:(2) CLint, in vitro=0.693/t1/2×Vincubation/mmicrosomes where Vincubation indicates the volume of the incubation in μL and mmicrosomes indicates the mass of microsomal proteins added to the incubation solution in mg. […]

CLint, in vitro ([2]; RLMs): 38.41 µL/min/mg
Ln Z ([2]; RLMs, time 0 min): 4.605
Z (%), remaining percentage of violacein ([2]; RLMs, time 0 min): 100%
Ln Z ([2]; RLMs, time 3 min): 4.495
Z (%), remaining percentage of violacein ([2]; RLMs, time 3 min): 90%
Ln Z ([2]; RLMs, time 5 min): 4.101
Z (%), remaining percentage of violacein ([2]; RLMs, time 5 min): 60%
Ln Z ([2]; RLMs, time 15 min): 3.832
Z (%), remaining percentage of violacein ([2]; RLMs, time 15 min): 46%
Ln Z ([2]; RLMs, time 30 min): 3.371
Z (%), remaining percentage of violacein ([2]; RLMs, time 30 min): 29%
Ln Z ([2]; RLMs, time 60 min): 2.549
Z (%), remaining percentage of violacein ([2]; RLMs, time 60 min): 13%
Ln Z ([2]; RLMs, time 120 min): 1.899
Z (%), remaining percentage of violacein ([2]; RLMs, time 120 min): 7%
microsomal CLint at 2 µM ([2]; male, rat, rat liver microsomes, pH 7.4, RLMs): 38.4 µL/min/mg
CLint scaled at 2 µM ([2]; male, rat, rat liver microsomes, pH 7.4, rat, extrapolated from CLint, in vitro by allometric scaling, read-out: CLint, in vivo): 93.7 mL/min/kg
half-life at 2 µM ([2]; male, rat, rat liver microsomes, pH 7.4, RLMs, 2 μM violacein, 1 mg/mL microsomal protein, NADPH-regenerating system, 37 °C, n = 3, read-out: In vitro elimination half-life (t1/2)): 36 min
CLint, in vivo ([2]; rat, extrapolated from CLint, in vitro by allometric scaling): 93.72 mL/min/kg
Structure (SMILES): O=C1NC(c2c[nH]c3ccc(O)cc23)=C/C1=C1\C(=O)Nc2ccccc21 [violacein]
pIC50 [1]: 6.30
Slope (k), metabolism rate constant ([2]; RLMs, ln remaining % vs incubation time): y = −0.0192x + 4.0344 r^2 = 0.9459 Slope (k) = 0.0192

From publication PMC12114947, “Evaluation of Violacein Metabolic Stability and Metabolite Identification in Human, Mouse, and Rat Liver Microsomes” (Pharmaceutics, 2025)
